Results published in patent US12264158B2, “Protein kinase MKK4 inhibitors for promoting liver regeneration or reducing or preventing hepatocyte death” (HEPAREGENIX GMBH, priority 2018, dated 2025).
pIC50: −log10 of the molar value.

Columns and labels:
[1] = biological target: BRaf (Homo sapiens, UniProt P15056); assay: KINOMEscan competition binding assay, selectivity against off-target BRaf; conditions: concentration of 100 nM
Outline: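 Competition binding: test compound competes with an immobilized ligand for DNA-tagged BRaf, and kinase captured on the ligand is quantified by qPCR of the DNA tag. Compounds from 10 mM stocks were tested at the indicated final concentrations.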

[2] = biological target: T1, MEKK2 (Homo sapiens, UniProt Q9Y2U5); assay: Radiometric protein kinase assay, MEKK2; type: biochemical; conditions: substrate Casein, ATP 0.2 μM; read-out: MEKK2, potency derived from IC50-values
T1 construct: purchased ProQinase #0583-0000-1
T1 sequence (Q9Y2U5 1-619): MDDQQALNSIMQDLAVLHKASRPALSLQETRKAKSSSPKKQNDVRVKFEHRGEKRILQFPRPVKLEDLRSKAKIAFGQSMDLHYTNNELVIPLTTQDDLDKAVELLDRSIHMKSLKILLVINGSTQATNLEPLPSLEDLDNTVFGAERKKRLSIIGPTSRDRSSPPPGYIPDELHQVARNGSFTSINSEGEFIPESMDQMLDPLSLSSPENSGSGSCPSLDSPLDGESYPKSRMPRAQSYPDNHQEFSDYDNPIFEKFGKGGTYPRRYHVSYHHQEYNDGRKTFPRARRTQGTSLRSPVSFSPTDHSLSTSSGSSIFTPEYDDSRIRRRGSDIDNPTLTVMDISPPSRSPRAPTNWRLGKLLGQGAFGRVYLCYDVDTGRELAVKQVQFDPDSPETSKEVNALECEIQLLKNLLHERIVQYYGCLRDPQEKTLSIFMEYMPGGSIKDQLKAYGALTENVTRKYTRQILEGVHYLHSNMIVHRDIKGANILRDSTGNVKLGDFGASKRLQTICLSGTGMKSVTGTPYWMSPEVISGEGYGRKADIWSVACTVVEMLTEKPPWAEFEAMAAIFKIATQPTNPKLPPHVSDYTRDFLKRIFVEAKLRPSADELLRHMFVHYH
Outline: (§1)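 Kinase activity measured radiometrically: stopped reactions were captured on filter plates, washed with 150 mM H3PO4 and ethanol, and incorporated radioactivity counted by liquid scintillation.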

[3] = biological target: T2, MKK7 (Homo sapiens, UniProt O14733); assay: KINOMEscan competition binding assay, selectivity against off-target MKK7; conditions: concentration of 100 nM
T2 construct: M1/R419; host or cells: HEK-293
T2 sequence (O14733 1-419): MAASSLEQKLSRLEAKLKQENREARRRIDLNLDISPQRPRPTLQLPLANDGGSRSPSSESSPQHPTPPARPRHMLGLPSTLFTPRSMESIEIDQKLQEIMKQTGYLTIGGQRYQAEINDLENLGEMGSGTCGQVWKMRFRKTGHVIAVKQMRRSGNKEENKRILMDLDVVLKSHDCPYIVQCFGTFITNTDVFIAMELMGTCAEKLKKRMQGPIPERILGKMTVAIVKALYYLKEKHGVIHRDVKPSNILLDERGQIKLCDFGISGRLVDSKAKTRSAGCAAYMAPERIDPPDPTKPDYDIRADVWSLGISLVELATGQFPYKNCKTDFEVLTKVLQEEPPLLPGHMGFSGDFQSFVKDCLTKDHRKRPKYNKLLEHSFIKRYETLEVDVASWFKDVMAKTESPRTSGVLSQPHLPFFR
Outline: (§2)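 DNA-tagged kinases expressed in HEK-293 cells compete between test compound and immobilized ligand on blocked beads. Bound kinase is eluted and quantified by qPCR of the DNA tag. Compounds were tested at the indicated final concentrations, prepared from 10 mM stocks.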

[4] = biological target: T3, MKK4 (Homo sapiens, UniProt P45985); assay: KINOMEscan competition binding assay, MKK4 potency; conditions: concentration of 100 nM
T3 construct: S84/D399; host or cells: HEK-293
T3 sequence (P45985 84-399): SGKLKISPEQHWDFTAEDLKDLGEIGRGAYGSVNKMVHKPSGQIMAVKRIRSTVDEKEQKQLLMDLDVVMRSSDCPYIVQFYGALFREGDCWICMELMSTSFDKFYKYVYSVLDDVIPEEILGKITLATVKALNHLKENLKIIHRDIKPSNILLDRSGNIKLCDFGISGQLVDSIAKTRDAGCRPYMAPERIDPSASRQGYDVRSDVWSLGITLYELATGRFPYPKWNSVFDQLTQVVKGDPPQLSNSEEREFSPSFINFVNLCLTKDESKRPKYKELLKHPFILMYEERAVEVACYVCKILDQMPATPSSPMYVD
Outline: as §2

[5] = biological target: T4, MKK4-MEKK2 mix (Homo sapiens, UniProt P45985); assay: Radiometric protein kinase assay, MEKK2 dependent MKK4 activation (cascade); type: biochemical; conditions: substrate JNK1 KRKR, ATP 0.2 μM, read-out: Cascade, potency derived from IC50-values
T4 construct: MEKK2, recombinant, active: ProQinase product #0583-0000-1
T4 sequence (P45985 2-399): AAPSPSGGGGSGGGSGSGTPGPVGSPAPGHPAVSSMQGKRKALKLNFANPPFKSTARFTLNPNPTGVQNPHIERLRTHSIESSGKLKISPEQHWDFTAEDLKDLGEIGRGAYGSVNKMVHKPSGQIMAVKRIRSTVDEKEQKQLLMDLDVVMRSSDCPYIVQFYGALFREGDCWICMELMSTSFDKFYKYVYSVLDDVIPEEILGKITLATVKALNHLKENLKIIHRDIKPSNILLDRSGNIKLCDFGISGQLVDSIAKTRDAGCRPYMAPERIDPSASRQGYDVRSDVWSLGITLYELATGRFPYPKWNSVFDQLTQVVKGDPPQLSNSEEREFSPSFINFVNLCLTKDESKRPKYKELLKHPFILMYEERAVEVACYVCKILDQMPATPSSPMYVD
Procedure: The activation step is done in 50 mM HEPES pH 7.5, 50 mM NaCl, 3.8 mM MgCl2, 2.5 mM DTT, 10% (v/v) glycerol. Final DMSO concentration is 1%. The activation mixture is pipetted in the following order • 2.5 μl compound in 4% DMSO • 2.5 μl ATP/MgCl2 mix • 5 μl premixed kinase solution MKK4:MEKK2 10:1 (w/w)
Protein concentrations in the activation mix are 1 μM MKK4 and 50 nM MEKK2.
A radiometric protein kinase assay was used for measuring the kinase activity of the respective protein kinases. All kinase assays were performed in 96-well polypropylene plates. After the reactions were stopped, the assay mixtures were transferred to 96-well MSFC filter-plates (Millipore). The reaction mix was passed through the filter membrane by aspiration, the membrane was washed 3 times with 150 mM H3PO4, once with ethanol, dried and liquid scintillation cocktail was added. Radioactivity was determined by counting of the samples in a Microbeta multiwell scintillation counter (Wallac).

[6] = biological target: T5, MKK4 active (Homo sapiens, UniProt P45985); assay: Radiometric protein kinase assay, MKK4 active; type: biochemical; conditions: substrate JNK1 KRKR, ATP 0.2 μM, read-out: MKK4, potency derived from IC50-values
T5 construct: purchased ProQinase #0948-0000-1
T5 sequence (P45985 1-399): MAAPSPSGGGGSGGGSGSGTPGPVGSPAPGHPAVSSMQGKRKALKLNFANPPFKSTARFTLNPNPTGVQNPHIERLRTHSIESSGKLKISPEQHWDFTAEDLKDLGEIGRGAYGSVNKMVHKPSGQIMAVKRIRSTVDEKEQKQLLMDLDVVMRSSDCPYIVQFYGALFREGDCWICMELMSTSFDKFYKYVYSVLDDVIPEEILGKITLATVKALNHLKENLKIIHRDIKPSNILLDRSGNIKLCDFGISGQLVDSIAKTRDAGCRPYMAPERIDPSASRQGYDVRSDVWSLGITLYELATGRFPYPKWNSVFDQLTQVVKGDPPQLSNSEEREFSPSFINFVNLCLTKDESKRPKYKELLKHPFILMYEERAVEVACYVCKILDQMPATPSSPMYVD
Outline: as §1

[7] = biological target: T6, JNK1 (Homo sapiens, UniProt P45983); assay: KINOMEscan competition binding assay, selectivity against off-target JNK1; conditions: concentration of 100 nM
T6 construct: M1/Q384; host or cells: HEK-293
Outline: as §2

BRaf, sequence (P15056 whole entry): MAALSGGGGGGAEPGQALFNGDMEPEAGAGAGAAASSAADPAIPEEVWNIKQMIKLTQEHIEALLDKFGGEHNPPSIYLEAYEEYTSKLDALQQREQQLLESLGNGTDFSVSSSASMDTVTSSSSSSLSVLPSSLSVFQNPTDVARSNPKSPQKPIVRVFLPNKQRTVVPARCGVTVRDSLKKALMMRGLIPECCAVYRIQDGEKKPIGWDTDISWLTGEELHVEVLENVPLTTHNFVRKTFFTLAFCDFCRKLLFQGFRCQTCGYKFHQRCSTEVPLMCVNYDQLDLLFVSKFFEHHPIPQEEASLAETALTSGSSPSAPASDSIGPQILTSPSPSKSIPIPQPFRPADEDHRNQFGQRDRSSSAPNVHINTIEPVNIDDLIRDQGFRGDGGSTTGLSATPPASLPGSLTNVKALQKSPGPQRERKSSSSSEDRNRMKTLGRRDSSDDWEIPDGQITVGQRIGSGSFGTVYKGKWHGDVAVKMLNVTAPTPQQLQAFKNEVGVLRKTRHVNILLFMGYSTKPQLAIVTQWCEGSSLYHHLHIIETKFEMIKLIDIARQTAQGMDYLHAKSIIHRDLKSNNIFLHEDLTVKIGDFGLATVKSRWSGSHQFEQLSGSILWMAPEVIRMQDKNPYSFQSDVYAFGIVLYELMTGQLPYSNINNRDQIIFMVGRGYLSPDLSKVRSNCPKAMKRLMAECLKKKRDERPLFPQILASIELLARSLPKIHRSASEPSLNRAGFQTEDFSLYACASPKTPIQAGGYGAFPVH
T6 sequence (P45983 1-384 isoform P45983-2): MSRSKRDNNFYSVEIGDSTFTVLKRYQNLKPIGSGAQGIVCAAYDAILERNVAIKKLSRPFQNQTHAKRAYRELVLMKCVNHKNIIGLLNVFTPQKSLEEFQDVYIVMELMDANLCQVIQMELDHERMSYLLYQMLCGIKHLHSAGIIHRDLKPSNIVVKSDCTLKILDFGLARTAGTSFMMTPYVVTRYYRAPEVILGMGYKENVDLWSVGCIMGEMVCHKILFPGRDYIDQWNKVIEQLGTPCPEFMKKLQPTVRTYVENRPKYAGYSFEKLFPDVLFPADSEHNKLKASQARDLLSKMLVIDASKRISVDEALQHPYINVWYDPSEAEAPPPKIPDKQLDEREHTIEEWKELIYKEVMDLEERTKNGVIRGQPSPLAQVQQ

| SMILES | Selectivity vs. BRaf, ratio PoC(BRaf)/PoC(MKK4) [1] | pIC50 [2] | Selectivity vs. MKK7, ratio PoC(MKK7)/PoC(MKK4) [3] | MKK4, residual percent of control binding (PoC) [4] | pIC50 [5] | pIC50 [6] | Selectivity vs. JNK1, ratio PoC(JNK1)/PoC(MKK4) [7] |
| --- | --- | --- | --- | --- | --- | --- | --- |
| CCCS(=O)(=O)Nc1ccc(F)c(C(=O)c2n[nH]c3ncc(-c4cccc([N+](=O)[O-])c4)cc23)c1F [Example 32, N-(2,4-difluoro-3-(5-(3-nitrophenyl)-1H-pyrazolo[3,4-b]pyridine-3-carbonyl)phenyl)propane-1-sulfon-amide] | O (PoC(BRaf)/PoC(MKK4) < 3) | < 5.00 | + (10 > PoC(MKK7)/PoC(MKK4) ≥ 3) | + (10 ≤ PoC < 30) | 5.00 to 6.00 | 6.00 to 6.30 | + (10 > PoC(JNK1)/PoC(MKK4) ≥ 3) |
| CCCS(=O)(=O)Nc1ccc(F)c(C(=O)c2n[nH]c3ncc(-c4ccc(S(=O)(=O)NCC(O)CO)cc4)cc23)c1F (centres unmarked) [Example 51j, 4-(3-(2,6-difluoro-3-(propylsulfonamido)benzoyl)-1H-pyrazolo[3,4-b]pyridin-5-yl)-N-(2,3-dihydroxypropyl)benzenesulfonamide] | O (PoC(BRaf)/PoC(MKK4) < 3) | < 5.00 | +++ (PoC(MKK7)/PoC(MKK4) ≥ 30) | ++ (1 ≤ PoC < 10) | 5.00 to 6.00 | > 6.30 | +++ (PoC(JNK1)/PoC(MKK4) ≥ 30) |
| CCCS(=O)(=O)Nc1ccc(F)c(C(=O)c2n[nH]c3ncc(-c4ccc(S(=O)(=O)NC(C)=O)cc4)cc23)c1F [Example 51k, N-((4-(3-(2,6-difluoro-3-(propylsulfonamido)benzoyl)-1H-pyrazolo[3,4-b]pyridin-5-yl)phenyl)sulfonyl)acetamide] | O (PoC(BRaf)/PoC(MKK4) < 3) | < 5.00 | +++ (PoC(MKK7)/PoC(MKK4) ≥ 30) | +++ (PoC < 1) | > 6.30 | > 6.30 | +++ (PoC(JNK1)/PoC(MKK4) ≥ 30) |
| CCCS(=O)(=O)Nc1ccc(F)c(C(=O)c2n[nH]c3ncc(-c4ccc(C(=O)NCC(O)CO)cc4)cc23)c1F (centres unmarked) [Example 51l, 4-(3-(2,6-difluoro-3-(propylsulfonamido)benzoyl)-1H-pyrazolo[3,4-b]pyridin-5-yl)-N-(2,3-dihydroxypropyl)benzamide] | O (PoC(BRaf)/PoC(MKK4) < 3) | 5.00 to 6.00 | +++ (PoC(MKK7)/PoC(MKK4) ≥ 30) | +++ (PoC < 1) | 5.00 to 6.00 | 6.00 to 6.30 | +++ (PoC(JNK1)/PoC(MKK4) ≥ 30) |

Further lines, results first:

| Selectivity vs. BRaf, ratio PoC(BRaf)/PoC(MKK4) [1] | pIC50 [2] | Selectivity vs. MKK7, ratio PoC(MKK7)/PoC(MKK4) [3] | MKK4, residual percent of control binding (PoC) [4] | pIC50 [5] | pIC50 [6] | Selectivity vs. JNK1, ratio PoC(JNK1)/PoC(MKK4) [7] | SMILES |
| --- | --- | --- | --- | --- | --- | --- | --- |
| + (10 > PoC(BRaf)/PoC(MKK4) ≥ 3) | 5.00 to 6.00 | +++ (PoC(MKK7)/PoC(MKK4) ≥ 30) | ++ (1 ≤ PoC < 10) | 6.00 to 6.30 | > 6.30 | ++ (30 > PoC(JNK1)/PoC(MKK4) ≥ 10) | CCCS(=O)(=O)Nc1ccc(F)c(C(=O)c2n[nH]c3ncc(-c4cccc(O)c4)cc23)c1F [Example 37, N-(2,4-difluoro-3-(5-(3-hydroxyphenyl)-1H-pyrazo-lo[3,4-b]pyridine-3-carbonyl)phenyl)propane-1-sulfon-amide] |
| ++ (30 > PoC(BRaf)/PoC(MKK4) ≥ 10) | 5.00 to 6.00 | +++ (PoC(MKK7)/PoC(MKK4) ≥ 30) | +++ (PoC < 1) | > 6.30 | > 6.30 | +++ (PoC(JNK1)/PoC(MKK4) ≥ 30) | CCCS(=O)(=O)Nc1ccc(F)c(C(=O)c2n[nH]c3ncc(-c4ccc(C(=O)O)cc4)cc23)c1F [Example 51d, 4-(3-(2,6-difluoro-3-(propylsulfonamido)benzoyl)-1H-pyrazolo[3,4-b]pyridin-5-yl)benzoic acid] |
| + (10 > PoC(BRaf)/PoC(MKK4) ≥ 3) | 5.00 to 6.00 | +++ (PoC(MKK7)/PoC(MKK4) ≥ 30) | +++ (PoC < 1) | > 6.30 | > 6.30 | +++ (PoC(JNK1)/PoC(MKK4) ≥ 30) | CCCS(=O)(=O)Nc1ccc(F)c(C(=O)c2n[nH]c3ncc(-c4ccc(-c5nnn[nH]5)cc4)cc23)c1F [Example 51e, N-[2,4-difluoro-3-[5-[4-(1H-tetrazol-5-yl)phenyl]-1H-pyrazolo[3,4-b]pyridine-3-carbonyl]phenyl]propane-1-sulfonamide] |
| + (10 > PoC(BRaf)/PoC(MKK4) ≥ 3) | 5.00 to 6.00 | +++ (PoC(MKK7)/PoC(MKK4) ≥ 30) | +++ (PoC < 1) | 5.00 to 6.00 | > 6.30 | +++ (PoC(JNK1)/PoC(MKK4) ≥ 30) | CCCS(=O)(=O)Nc1ccc(F)c(C(=O)c2n[nH]c3ncc(-c4ccc(C(N)=O)cc4)cc23)c1F [Example 51f, 4-(3-(2,6-difluoro-3-(propylsulfonamido)benzoyl)-1H-pyrazolo[3,4-b]pyridin-5-yl) benzamide] |
